Earlier results, collected in patent US5849733A, “2-thio or 2-oxo flavopiridol analogs” (Bristol-Myers Squibb Co., priority 1997, dated 1998).

Tested on: apoptosis
Conditions: J. Cell Sci., 108, 2897 (1995)

For `Cn1cnc2c(NCc3ccccc3)nc(NCCO)nc21` [olomucine], the “synergy with known cytotoxic agents in inducing apoptosis” value is listed as “act synergistically with known cytotoxic agents in inducing apoptosis”.
